Experimental data: patent publication US5470873A, “Diabetes prevention and treatment using gamma-pyrones” (University Technologies International, Inc., priority 1994, dated 1995)

Legend:
[1] = immunosuppressive therapy, humans; cited from earlier work
[2] = oral; flavoring agents for foods; cited from earlier work
pancreatic beta cells = experiment: Destruction of pancreatic beta cells detected by fluorescein labelled anti-insulin antibody; assay type: in vivo, NOD mice; conditions: compared to untreated, diabetic NOD mice
Description: Fluorescein isothiocyanate-labelled anti-insulin antibody was prepared as described previously 45. Briefly, gamma globulin that was prepared by immunizing guinea pigs with glutaraldehyde polymerized porcine insulin and purified by Sephadex G-200 chromatography was purchased from Index Corp., Glenwood, Ill, USA. This material was labelled with FITC. Unconjugated FITC was removed by dialysis against 0.01M PBS (pH 7.5) and by gel filtration through a Sephadex G-25. The labelled gamma globulin was subsequently absorbed with acetone-treated mouse liver powder to eliminate nonspecific fluorescence. Pancreatic sections (from 25% of each pancreas) prepared from maltol-treated and untreated NOD mice were stained with FITC-labelled anti-insulin antibody and examined under a fluorescent microscope as described elsewhere 47.48. Briefly, pancreatic sections on the slides were flooded with FITC-labelled anti-insulin antibody and incubated in a humidity chamber overnight at 4° C. in the dark. The slides were then washed in three changes of cold PBS for a total of 20 min to remove any unattached antibody, mounted with Elvanol and observed with an Olympus fluorescence microscope ^45. As it is difficult to determine whether the lymphocytes observed in the pancreatic islets are contributing to beta cell destruction, another method was used to determine whether beta cells from maltol-treated or untreated NOD mice were destroyed or not. Sections of pancreatic islets were stained with a fluorescein-labelled anti-insulin antibody and the number of insulin-containing beta cells in the islets was estimated.

[3] = Blood glucose levels in NOD mice (glucose oxidase method); assay type: in vivo; conditions: 35 weeks of age
Description: (§1) NOD mice were dosed with maltol to evaluate its effect on the pathogenesis of type I diabetes. Mice received 5 mg maltol/mouse every other day from age 2 weeks until they were 20 weeks old. Maltol extracted from ginseng as described in Example 2 was used for the first 10 weeks, then maltol purchased from Sigma Co., St. Louis, MO was used thereafter. The mice were kept until they were 35 weeks old. Urine glucose was measured at 3-day intervals from 10 to 35 weeks of age. Urinary glucose and ketone levels were determined using Diastix and Ketostix reagent slips (Miles, Ontario, Canada). Individual mice were classified as being diabetic on the basis of positive glycosuria^38. […] In contrast, 78% of age-matched control mice (22 mice) spontaneously developed autoimmune diabetes. At 35 weeks of age, fasting (8 hours of fasting) and non-fasting blood glucose levels were measured. Blood was obtained from the retro-orbital venous plexus of fasting and nonfasting NOD mice. Glucose levels were measured enzymatically by the glucose oxidase method with o-dianisidine dihydrochloride as the reactive dye ^39-41 . The mean nonfasting blood glucose level of 35 ICR mice (nondiabetic control mice; NOD mice were derived from ICR mice) was 149±27 mg/dl. Any non-fasting mouse with a blood glucose level greater than 230 mg/dl (3 SD above the mean) was scored as diabetic. The mean fasting blood glucose level of 38 ICR mice was 137±28 mg/dl. Any fasting mouse with a blood glucose level greater than 221 mg/dl (3 SD above the mean) was scored as diabetic.

[4] = Pancreatic insulin content (immunoreactive insulin, radioimmunoassay) in NOD mice; assay type: in vivo
Description: Insulin was extracted from the pancreas of non-obese diabetic (NOD) mouse by known methods ^33,34. Briefly, deep frozen pancreatic tissue (50% of each pancreas) was placed into phosphate buffered saline (PBS) and then extraction solution A (380 ml absolute alcohol, 20 ml H2 O, 8 ml concentrated HCl and some drops of alcoholic phenol red) was added. This mixture was homogenized with polytron type PT 10-20-[…] in glass tubes (15×125 mm) for 30 seconds in position 5. The homogenized material in the tubes was incubated at 4° C. for 10 hours. At the end of the incubation period, the homogenized material was centrifuged at 800 g for 5 minutes for clarification. The supernatant was saved. The pellet was re-extracted with 1 ml of extraction solution B (356 ml absolute alcohol, 124 ml H2 O and 7.5 ml HCl). The pellet in extraction solution B was incubated for 4 hours at 4° C. and then homogenized with a polytron as described above. The homogenized material was centrifuged at 800 g for 5 minutes. The supernatant was pooled with the supernatant from the first extraction. The pooled supernatant was neutralized with concentrated NH40 H (about 10 μl ) until the phenol red turned to purple. The neutralized supernatant was precipitated at 4° C. and then centrifuged at 800 g for 5 min. The supernatant, which contains insulin, was used for the measurement of insulin by radioimmunoassay. The concentration of immunoreactive insulin (IRI) in the pancreas from DPD-treated and untreated NOD mice was measured by radioimmunoassay techniques ^42-44 using mouse insulin as a standard. Briefly, the extracted samples from NOD mice were mixed with […], and anti-insulin antibody. The mixed materials were incubated for 2 hours at room temperature. At the end of the incubation period, anti-guinea pig IgG raised in sheep was added and the mixture was incubated for 30 minutes at room temperature. At the end of the incubation, the samples were centrifuged at 1500 g for 10 minutes. The supernatant was completely removed. The radioactivity of the pellets was measured. The percent of activity was determined by the following formula: [formula] On the basis of % activity in standards, a standard curve was constructed. The concentration of each unknown sample from maltol-treated or untreated NOD pancreas was read on the basis of the standard curve. […] The maltol-treated mice have insulin levels that are similar to the non-diabetic, untreated animals. About 75% of the maltol-treated mice have insulin levels over 80 μg/g pancreas and about 25% have insulin levels between 55-75 μg/g pancreas.

pancreatic islets = experiment: Histologic changes of pancreatic islets (hematoxylin and eosin); assay type: in vivo, NOD mice; conditions: compared to untreated, diabetic NOD mice
Excerpt: Maltol-treated and untreated NOD mice were sacrificed and 25% of each pancreas was fixed in 6% Formalin. Paraffin-embedded sections were stained with hematoxylin and eosin and examined under an Olympus light microscope ^49. To see whether there are any histological differences between the pancreatic islets of DPD-treated and untreated NOD mice, the pancreatic islets of 35 week old mice were examined with the light microscope after staining with hematoxylin and eosin. […] The rest of their islets were rated as having either severe (22%), moderate (27%), mild (25%) or no (6%) insulitis. […] In addition, there were histopathological changes in their pancreatic islets that were rated as moderate (22% of examined islets), mild (30%) or as having no insulitis (15%).

[5] = Inhibition of hydrogen peroxide induced free radical production (luminol chemiluminescence); assay type: biochemical; conditions: for Chemiluminescence: 3 μM luminol, 20 μl H2O2, without maltol 11845.0 ± 1414.0
Description: One of the possible mechanisms for the destruction of pancreatic beta cells in autoimmune Type I diabetes is their damage by free radicals and cytokines released from macrophages and T lymphocytes. It is hypothesized that maltol can inhibit the action of these released radicals and thus prevent Type I diabetes. We measured the effect of maltol on the inhibition of free radicals produced by hydrogen peroxide.
Chemiluminescence produced by hydrogen peroxide was measured using a liquid scintillation counter (LKB 1217/1217 Rack Beta) set to the tritium channel. Briefly, luminol (5-amino-2,3-dihydro-l,4-phthalazinedione) was dissolved in dimethylsulfoxide and diluted with Krebs-Ringer bicarbonate buffer (pH 7.4) containing […] Hepes and no glucose. The final concentration of dimethylsulfoxide was 0.06 μl/ml. Under these assay conditions, 3 μM luminol and various amounts of hydrogen peroxide ranging from 5-20μl were mixed with 5 ml of Krebs-Ringer bicarbonate buffer, with or without maltol. Chemiluminescence was measured for a 30 second period beginning at 20 seconds after the addition of hydrogen peroxide.

[6] = Prevention of clinical diabetes (glycosuria) in NOD mice; assay type: in vivo
Description: as §1

O=P1(N(CCCl)CCCl)NCCCO1 (stereo not shown) [cyclophosphamide]
Effect on course of IDDM [1]: did not alter the course of the disease

CCc1occc(=O)c1O [ethyl maltol]
Toxicity when taken orally [2]: very low toxicities when taken orally

Cc1occc(=O)c1O [maltol, 3-Hydroxy-2-methyl-4-pyrone]
Destruction of pancreatic beta cells (in words) (pancreatic beta cells): significantly less destruction of pancreatic beta cells | Mean fasting blood glucose ([3]; fasting (8 hours), untreated diabetic 334±47): 92 ± 17 mg/dL | Mean non-fasting blood glucose ([3]; non-fasting, untreated diabetic 342±45): 132 ± 19 mg/dL | Pancreatic insulin / protection from beta cell destruction (in words) ([4]; NOD mice): substantial protection from beta cell destruction | Pancreatic insulin level ([4]; about 25% of the maltol-treated mice): 55-75 μg/g pancreas | Pancreatic insulin level ([4]; about 75% of the maltol-treated mice, majority of untreated less than 10 μg/g): over 80 μg/g pancreas | Lymphocytic infiltration of the pancreatic islets (in words) (pancreatic islets): much less lymphocytic infiltration of the pancreatic islets | Percent inhibition of free radical production ([5]; 0.2 mM maltol): 60% | Chemiluminescence ([5]; 0.2 mM maltol): 4829.3 ± 792.1 cpm | Percent inhibition of free radical production ([5]; 2.0 mM maltol): 98% | Chemiluminescence ([5]; 2.0 mM maltol): 210. ± 55.1 cpm | Percent inhibition of free radical production ([5]; 80 mM maltol): 99.7% | Chemiluminescence ([5]; 80 mM maltol): 31.6 ± 3.1 cpm | Success in preventing clinical diabetes [6]: 100% | Mice showing signs of clinical diabetes ([6]; 5 mg/mouse every other day, age 2 to 20 weeks, urine glucose 10 to 35 weeks, untreated 78%): 0% | Prevention / recurrence of clinical diabetes (in words) ([6]; observed to 35 weeks, incl. 15 weeks after cessation of treatment): can prevent clinical diabetes completely | Toxicity when taken orally [2]: very low toxicities when taken orally
